Where “and” joins values, the source holds several entries; their conditions need not be identical. Equal entries are not always repeated. Calls of active or inactive are those of the source.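 How the source made its calls: active means compound flagged as a likely artifact in this counterscreen, with IC50 of 10 µM or lower; inactive means IC50 above 10 µM.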
Test system: HEK293 Gal4-VP16 luciferase reporter counterscreen, luminescence
Assay: VP16-driven transactivation reporter suppression potency – cell-based, luminescence, HEK293, counter-screen for COUP-TFII inhibitor project, dose response (AID 720547);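 further: potency for lowering the luciferase signal driven by Gal4-VP16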

Compound	IC50
COc1cc2c(cc1OC)C1C(=O)c3ccc4c(c3OC1CO2)CC(C(C)C)O4 (stereo not given)	> 28.5 µM (inactive)
Cc1cc(N2CCN(c3nc4ccccc4s3)CC2)n2ncnc2n1	> 85.4 µM (inactive)
CCN(CC)S(=O)(=O)c1ccc(/C=C/C(=O)Nc2ccc(Br)cc2F)cc1	> 85.4 µM (inactive)
O=C(Nc1ccncc1)c1ccc(Cl)c(S(=O)(=O)N2CCc3ccccc32)c1	60.6 µM (inactive)
Cc1ccc(-c2csc(NC(=O)C3CCN(S(=O)(=O)c4cccs4)CC3)n2)cc1	> 85.4 µM (inactive)
COc1ccc(NS(=O)(=O)c2cccc(NC(=O)c3ccc(Cl)nc3)c2)cc1	73.5 µM (inactive)
COc1ccc(-n2cc(-c3ccc(C)cc3)[n+]3c2SCC3)cc1	> 85.4 µM (inactive)
Cc1nc2ccccc2n1Cc1ccc(Br)cc1	> 85.3 µM (inactive)
CC1Cc2cc(-c3csc(NC(=O)Cc4ccccc4)n3)ccc2N1S(C)(=O)=O (stereo not given)	> 85.4 µM (inactive)
Cc1c(C(=O)NCc2ccc(C(C)C)cc2)sc(=O)n1Cc1ccc(S(=O)(=O)N(C)C)cc1	> 85.4 µM (inactive)
COc1ccc(NC(=O)C2Cc3c(-c4ccc5c(c4)OCO5)ccnc3O2)cc1OC (stereo not given)	> 85.4 µM (inactive)
C/C(=N\NC(N)=S)C1C2C3CC4C5CC(C42)C1C53 (stereo not given)	> 85.4 µM (inactive)
COc1ccc(-c2csc(NC(=O)C3CCN(c4ncnc5sc(C)c(C)c45)CC3)n2)cc1OC	25.7 µM (inactive)
CCc1cc(-c2nnn(CCC3COCCO3)c2CC)ccc1-c1cn(Cc2ccc3ccccc3c2)nn1 (stereo not given)	> 85.4 µM (inactive)
CCC1CCCCN1C(=O)c1cc(COc2ccc3ncccc3c2)on1 (stereo not given)	> 85.4 µM (inactive)
C[C@@H]1C[C@@H]([C@H](O)CC2CC(=O)NC(=O)C2)C(=O)[C@@H](C)C1	> 85.4 µM (inactive)
Cn1nc(CC(=O)Nc2ccc3c(c2)OCCO3)c2ccccc2c1=O	> 85.4 µM (inactive)
Cc1c(/C(O)=C2/C(=O)C(=O)N(CCN3CCOCC3)C2c2ccco2)cnn1-c1ccccc1 (stereo not given)	21.3 µM (inactive)
CC(C)(C)OC(=O)NCCCCCc1cn([C@@H](CO)C(=O)NCCCCCCCCCCC(=O)N2CCN(C(=O)OC(C)(C)C)CC2)nn1	13.3 µM (inactive)
CCc1cc(C(=O)NC2CCCc3c2cnn3-c2cccc(C)c2C)n(C)n1 (stereo not given)	> 85.4 µM (inactive)
Cc1cc(C(=O)NC2CCCc3c2cnn3-c2cccc(C)c2C)n(C)n1 (stereo not given)	> 85.4 µM (inactive)
Cc1c(C)n(Cc2ccccc2)c2ncnc(Cl)c12	> 85.4 µM (inactive)
CCOC(=O)c1c(C)[nH]c(C(=O)OCC(=O)Nc2sccc2C(N)=O)c1C	29.8 µM (inactive)

Compound	IC50
CC1C(OC(=O)CCC(=O)NC(C)(C)CO)O[C@H]2OC3(C)CC[C@H]4[C@H](C)CCC1C24OO3 (stereo not given in full)	> 85.4 µM (inactive)
OC[C@@H]1CN(Cc2ccc(-c3ccccc3)cc2)C[C@H](n2cnc3c(NCc4ccncc4)ncnc32)O1	59.3 µM (inactive)
COc1ccc(CCNC(=O)C(C)n2nc(C)c3c(C)n(-c4ccc(C)cc4)nc3c2=O)c(OC)c1 (stereo not given)	> 28.5 µM (inactive)
COc1ccc(CCNc2ncnc3sccc23)cc1OC	> 85.4 µM (inactive)
CC(=O)c1cccc(NS(=O)(=O)c2ccc(-c3cnc(C4CC4)o3)cc2)c1	> 85.4 µM (inactive)
COc1ccc(C2=Nn3c([n+](C)c4ccccc43)SC2)cc1	> 85.4 µM (inactive)
O=C(NC1CCCCCCC1)c1cc(COc2ccc3ncccc3c2)on1	> 85.4 µM (inactive)
COc1ccccc1-[n+]1c(C)cc(/C=C2\Sc3ccccc3N2C)cc1C	27.8 µM (inactive)
Cc1ccc(-n2nc3c(=O)n(C(C)C(=O)NCCC4=CCCCC4)nc(C)c3c2C)cc1 (stereo not given)	> 28.5 µM (inactive)
Cc1cccc(Nc2nc(-c3c(C)nc4ccccn34)cs2)c1	66.3 µM (inactive)
Cc1cc(C)c(CN2CCN(C(=O)Cn3cnc4c(NCc5ccccc5)ncnc43)CC2)c(C)c1	> 85.4 µM (inactive)
Cc1ccc(-n2nc3c(=O)n(C(C)C(=O)NCCCc4ccccc4)nc(C)c3c2C)cc1 (stereo not given)	> 85.4 µM (inactive)
c1ccc(CNc2ncnc3ccccc23)cc1	> 85.4 µM (inactive) and > 85.3 µM (inactive)
COc1cc(NC(=O)COc2cc(O)c3c(c2)OC(C)(C)CC3=O)cc(OC)c1OC	> 28.5 µM (inactive)
COc1ccc(-n2nnnc2C(c2cc3ccccc3o2)N2CCC(n3c(=O)[nH]c4ccccc43)CC2)cc1 (stereo not given)	12.7 µM (inactive)
O=C(CSc1nnc(-c2cccnc2)s1)Nc1ccnc2ccccc12	> 85.4 µM (inactive)
NC(=O)c1nnn(Cc2cc(Cl)c(C(=O)c3ccc(Cl)cc3)c(Cl)c2)c1N	> 85.4 µM (inactive)
CCN(CC)C(=O)c1oc2ccc(S(=O)(=O)N3CC(C)CC(C)C3)cc2c1C (stereo not given)	72.3 µM (inactive)
Cc1ccc(OCCN2CCN(c3ncnc4sc(C)c(C)c34)CC2)cc1	> 85.4 µM (inactive)
O=C(NCCc1cn2ccccc2n1)c1cc(COc2ccc3ncccc3c2)on1	31.1 µM (inactive)
OC[C@@H]1CN(Cc2ccc(-c3ccccc3)cc2)C[C@H](n2cnc3c(NC4CCC4)ncnc32)O1	64.1 µM (inactive)
c1ccc2c(c1)CCN(c1ncnc3c1[nH]c1ccccc13)C2	53.8 µM (inactive)
